# Laboratory results: publication PMC12494099, “Discovery and Characterization of Novel IKZF1/3 Glue Degraders against Multiple Hematological Cancer Cell Lines” (Oncology Research, 2025)
# Experiments:
# Assay type in all cases: cell-based
# [1] = system: NCI-H929 (MM), MV-4-11(AML), and Ocl-Ly3 (DLBCL) cells; experiment: Cell viability (CCK-8) assay, statements on the whole three-line panel; details: for antiproliferative activity (in words): compared with the prototypical IMiDs
# Experimental: Multiple cell lines (NCI-H929, OPM-2, U937, Ocl-Ly3, RPMI-8226, MOLM-13, Skm-1, MUTZ-1, SU-DHL-4, TMD8, U2932, WSU-DLCL-2, MV-4-11 and KG-1 cells) were plated into 96-well plates. The plated at a density of 15,000 cells per well, and each well contained 100 µL of medium. Subsequently, different compounds (MGD-AX, MGD-BX, MGD-CX) were added to each well. These compounds’ concentrations were set at 0, 0.01, 0.033, 0.1, 0.33, 1, 3.3, 10 and 33 μM, and the cells were incubated with the compounds for 96 h. To evaluate the antiproliferative effects of these compounds, the Cell Counting Kit-8 (CCK-8, #CX007, Epizyme, Shanghai, China) was used. All procedures were carried out in strict accordance with the manufacturer’s instructions (Dojindo Laboratories, Mamoto Ken, Japan). The half maximal inhibitory concentrations (IC50) values, which represent the concentrations of the test compounds that can inhibit 50% of cell activity, were calculated using GraphPad Prism 8.0 (GraphPad Software Inc., San Diego, CA, USA).
# [2] = system: Ocl-Ly3; experiment: Cell viability (CCK-8) assay; details: 96 h, CCK-8
# Experimental: (§1) The plated at a density of 15,000 cells per well, and each well contained 100 µL of medium. Subsequently, different compounds (MGD-AX, MGD-BX, MGD-CX) were added to each well. […] To evaluate the antiproliferative effects of these compounds, the Cell Counting Kit-8 (CCK-8, #CX007, Epizyme, Shanghai, China) was used. All procedures were carried out in strict accordance with the manufacturer’s instructions (Dojindo Laboratories, Mamoto Ken, Japan).
# [3] = system: MV-4-11; experiment: Cell viability (CCK-8) assay; details: Homo sapiens, 96 h, CCK-8
# Experimental: as §1
# [4] = system: NCI-H929; experiment: Cell viability (CCK-8) assay; details: Homo sapiens, NCI-H929, 96 h
# Experimental: as §1
# [5] = system: control vector NCI-H929 cells; experiment: Cell apoptosis assay, control vector cells
# Experimental: […] NCI-H929 and MV-4-11 cells were seeded at a density of 1 × 10^6 cells/well in 6-well tissue culture-treated plates. According to the manufacturer’s protocol (Santa Cruz Biotechnology, Inc, Dallas, TX, USA), CRBN CRISPR/Cas9 knockout Plasmid (#sc-412142), CRBN HDR plasmid (#sc-412142-HDR), UltraCruz® Transfection Reagent (#sc-395739) were pre-mixed in Plasmid Transfection Medium (#sc-108062) at a 1:1:2 mass ratio, and cells were transiently transfected in a 37°C, 5% CO2 incubator. After 72 h of infection, the medium was replaced with complete medium containing 3 μg/mL puromycin for 5–7 days. On day 7, GFP-positive cells were sorted as single cells into 96-well plates. Isolated single-cell clones were screened via western blot analysis, using wild-type NCI-H929 or MV-4-11 cells as positive controls.
# (§2) Cells (NCI-H929 and MV-4-11) were seeded at a density of 1 × 10^6 cells per well into 6-well dishes. […] Apoptosis was assessed using an Annexin V-FITC kit (#ab14085; Abcam, MA, USA) on a FACS Calibur Flow Cytometer (Becton Dickinson, Franklin Lakes, NJ, USA). For cell cycle analysis, cells were fixed in 75% ethanol (−20°C/overnight), washed with PBS (pH = 7.2–7.4, 1×), treated with RNase A (0.2 mg/mL, 37°C/30 min), stained with PI (10 μg/mL), and analyzed on the same instrument. Finally, the samples were analyzed using a FACS Calibur Flow Cytometer.
# [6] = system: MV-4-11; experiment: Cell apoptosis assay (Annexin V flow cytometry); details: MV-4-11, 10 µM
# Experimental: as §2
# [7] = system: OPM-2; experiment: Cell viability (CCK-8) assay; details: Homo sapiens, OPM-2, 96 h, read-out: IC50 (μM) OPM-2
# Experimental: as §1
# [8] = system: U2932; experiment: Cell viability (CCK-8) assay; details: Homo sapiens, U2932, 96 h, read-out: IC50 (μM) U2932
# Experimental: as §1
# [9] = system: U937; experiment: Cell viability (CCK-8) assay; details: Homo sapiens, U-937, 96 h, read-out: IC50 (μM) U937
# Experimental: as §1
# [10] = system: KG-1; experiment: Cell viability (CCK-8) assay; details: Homo sapiens, KG-1, 96 h, read-out: IC50 (μM) KG-1
# Experimental: as §1
# [11] = system: RPMI-8226; experiment: Cell viability (CCK-8) assay; details: Homo sapiens, RPMI-8226, 96 h, read-out: IC50 (μM) RPMI-8226
# Experimental: as §1
# [12] = system: SU-DHL-4; experiment: Cell viability (CCK-8) assay; details: Homo sapiens, SU-DHL-4, 96 h, read-out: IC50 (μM) SU-DHL-4
# Experimental: as §1
# [13] = system: MOLM-13; experiment: Cell viability (CCK-8) assay; details: Homo sapiens, MOLM-13, 96 h, read-out: IC50 (μM) MOLM-13
# Experimental: as §1
# [14] = system: TMD8; experiment: Cell viability (CCK-8) assay; details: Homo sapiens, TMD8, 96 h, read-out: IC50 (μM) TMD8
# Experimental: as §1
# [15] = system: WSU-DLCL-2; experiment: Cell viability (CCK-8) assay; details: Homo sapiens, WSUDLCL2, 96 h, read-out: IC50 (μM) WSU-DLCL-2
# Experimental: as §1
# [16] = system: MUTZ-1; experiment: Cell viability (CCK-8) assay; details: 96 h, read-out: IC50 (μM) MUTZ-1
# Experimental: as §1
# [17] = system: Skm-1; experiment: Cell viability (CCK-8) assay; details: Homo sapiens, SKM-1, 96 h, read-out: IC50 (μM) Skm-1
# Experimental: as §1
# [18] = molecular target: T1, IKZF3-HiBiT (Homo sapiens, UniProt Q96SW2+Q9UKT9); experiment: Quantitative degradation assay using the HiBiT system (HEK293T); details: HEK-293T; HEK293T IKZF3-HiBiT, 24 h; read-out: maximal degradation (Dmax) on IKZF3
# T1 construct: expressed in transfected cells; host or cells: HEK293T
# T1 sequence (Q9UKT9 whole entry): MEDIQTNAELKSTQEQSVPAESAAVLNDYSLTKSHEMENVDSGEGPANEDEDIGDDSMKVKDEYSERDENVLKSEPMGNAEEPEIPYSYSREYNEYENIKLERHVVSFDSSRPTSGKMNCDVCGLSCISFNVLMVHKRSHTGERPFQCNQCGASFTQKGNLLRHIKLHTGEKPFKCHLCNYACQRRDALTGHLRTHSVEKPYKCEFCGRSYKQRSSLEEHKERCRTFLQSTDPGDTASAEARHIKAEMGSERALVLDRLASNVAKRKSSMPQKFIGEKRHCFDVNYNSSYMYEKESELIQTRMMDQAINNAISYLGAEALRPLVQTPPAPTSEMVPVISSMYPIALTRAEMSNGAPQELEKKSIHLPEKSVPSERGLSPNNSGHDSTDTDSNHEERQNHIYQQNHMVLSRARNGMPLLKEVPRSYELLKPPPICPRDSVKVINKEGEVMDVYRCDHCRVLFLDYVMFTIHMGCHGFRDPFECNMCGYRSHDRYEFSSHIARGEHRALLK
# T1 sequence (Q96SW2 whole entry): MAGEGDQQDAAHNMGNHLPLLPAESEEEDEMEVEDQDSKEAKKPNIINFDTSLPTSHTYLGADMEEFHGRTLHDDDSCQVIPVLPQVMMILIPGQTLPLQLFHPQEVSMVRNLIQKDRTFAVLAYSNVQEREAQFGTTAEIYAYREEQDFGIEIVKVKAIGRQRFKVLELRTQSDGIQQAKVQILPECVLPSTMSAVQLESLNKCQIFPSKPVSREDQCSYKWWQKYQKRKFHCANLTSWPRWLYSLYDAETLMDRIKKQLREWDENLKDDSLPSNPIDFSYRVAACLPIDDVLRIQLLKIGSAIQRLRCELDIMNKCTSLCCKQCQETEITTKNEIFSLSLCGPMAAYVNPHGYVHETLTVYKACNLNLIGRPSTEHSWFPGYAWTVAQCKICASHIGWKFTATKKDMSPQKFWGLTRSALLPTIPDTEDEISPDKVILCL
# T1 sequence (Q16531 whole entry partner): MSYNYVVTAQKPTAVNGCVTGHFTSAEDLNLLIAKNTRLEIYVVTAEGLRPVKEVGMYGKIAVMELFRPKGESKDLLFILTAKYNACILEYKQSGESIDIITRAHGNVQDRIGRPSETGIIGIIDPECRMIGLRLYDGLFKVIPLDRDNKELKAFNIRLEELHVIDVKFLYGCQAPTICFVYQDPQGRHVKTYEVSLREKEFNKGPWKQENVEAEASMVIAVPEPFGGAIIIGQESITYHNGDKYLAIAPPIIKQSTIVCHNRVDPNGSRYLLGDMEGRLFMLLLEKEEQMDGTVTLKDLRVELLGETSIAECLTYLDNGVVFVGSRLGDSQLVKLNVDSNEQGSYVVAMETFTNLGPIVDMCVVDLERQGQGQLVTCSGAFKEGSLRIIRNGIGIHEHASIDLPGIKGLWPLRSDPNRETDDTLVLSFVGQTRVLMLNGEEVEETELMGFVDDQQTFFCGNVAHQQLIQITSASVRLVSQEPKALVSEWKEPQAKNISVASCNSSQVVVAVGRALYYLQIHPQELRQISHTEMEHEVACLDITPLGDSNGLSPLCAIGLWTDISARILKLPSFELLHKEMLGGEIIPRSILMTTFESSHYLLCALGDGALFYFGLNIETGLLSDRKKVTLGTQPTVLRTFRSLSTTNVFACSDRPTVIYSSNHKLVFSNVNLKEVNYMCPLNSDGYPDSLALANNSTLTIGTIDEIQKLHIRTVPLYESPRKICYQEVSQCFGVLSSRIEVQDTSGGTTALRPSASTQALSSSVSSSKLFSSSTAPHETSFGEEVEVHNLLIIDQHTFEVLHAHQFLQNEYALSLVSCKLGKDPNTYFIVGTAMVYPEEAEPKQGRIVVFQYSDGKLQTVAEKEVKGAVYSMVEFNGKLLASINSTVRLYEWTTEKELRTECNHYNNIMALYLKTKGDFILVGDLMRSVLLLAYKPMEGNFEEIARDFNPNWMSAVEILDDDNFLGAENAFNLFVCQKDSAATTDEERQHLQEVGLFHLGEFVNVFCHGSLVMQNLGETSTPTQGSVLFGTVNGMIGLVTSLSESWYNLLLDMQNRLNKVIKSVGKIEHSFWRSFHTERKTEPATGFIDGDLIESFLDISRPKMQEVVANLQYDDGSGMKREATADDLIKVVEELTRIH
# Experimental: (§3) An in vitro quantitative degradation assay utilizing the HiBiT system was carried out as previously described. To evaluate the degradation of IKZF1, IKZF2, and IKZF3 proteins, HEK293T cell lines stably expressing IKZF1-, IKZF2-, IKZF3-, GSPT1- or CK1α-HiBiT were cultured in 96-well plates at 12,000 cells per well. […] After the treatment, cell lysis was carried out using the Nano-Glo HiBiT Lytic Detection System (#N3040, Promega). All lysis operations were strictly carried out according to the manufacturer’s specific protocol. Then, the SpectraMax iD3 instrument (Molecular Devices, San Jose, CA, USA) was used to detect the luminescent signals released by the HiBiT-tagged neosubstrates.
# [19] = molecular target: T2, IKZF1-HiBiT (Homo sapiens, UniProt Q13422+Q96SW2); experiment: as above; details: HEK-293T; HEK293T IKZF1-HiBiT, 24 h; read-out: maximal degradation (Dmax) on IKZF1
# T2 construct: expressed in transfected cells; host or cells: HEK293T
# T2 sequence (Q13422 whole entry): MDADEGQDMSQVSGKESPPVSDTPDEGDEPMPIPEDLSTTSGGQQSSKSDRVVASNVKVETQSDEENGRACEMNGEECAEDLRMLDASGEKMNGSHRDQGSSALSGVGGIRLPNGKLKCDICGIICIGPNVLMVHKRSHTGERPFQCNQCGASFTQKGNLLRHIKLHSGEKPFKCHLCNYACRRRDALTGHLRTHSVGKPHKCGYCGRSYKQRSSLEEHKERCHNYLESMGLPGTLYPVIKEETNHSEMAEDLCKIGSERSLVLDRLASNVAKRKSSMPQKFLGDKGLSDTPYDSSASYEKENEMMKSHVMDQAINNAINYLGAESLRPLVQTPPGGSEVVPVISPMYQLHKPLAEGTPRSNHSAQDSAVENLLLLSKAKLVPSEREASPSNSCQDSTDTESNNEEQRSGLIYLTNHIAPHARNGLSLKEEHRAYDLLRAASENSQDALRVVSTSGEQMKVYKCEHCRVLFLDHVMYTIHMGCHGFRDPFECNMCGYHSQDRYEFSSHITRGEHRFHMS
# T2 sequence (Q96SW2 whole entry): as the sequence (Q96SW2 whole entry) above
# T2 sequence (Q16531 whole entry partner): as the sequence (Q16531 whole entry partner) above
# Experimental: as §3
"IC50 ([3]; MV4-11, 96 h) [µM]",IC50 [4] [µM],Compound,antiproliferative activity (in words) [1],IC50 [2] [µM],further results
8.34 ± 0.79,14.2 ± 1.36,"O=C1CCC(NC(=O)c2cccc(C(=O)N3CCCC3)c2)C(=O)N1 (stereo not shown) [MGD-A10, N-(2,6-dioxopiperidin-3-yl)-3-(pyrrolidine-1-carbonyl)benzamide]",mild activity,> 33,
5.47 ± 0.52,8.33 ± 0.8,"O=C1CCC(NC(=O)c2cccc(C(=O)N3CCCCC3)c2)C(=O)N1 (stereo not shown) [MGD-A11, N-(2,6-dioxopiperidin-3-yl)-3-(piperidine-1-carbonyl)benzamide]",mild activity,23 ± 2.19,
,2.18 ± 0.21,"Nc1cccc2c1C(=O)N(C1CCC(=O)NC1=O)C2=O (stereo not shown) [Pomalidomide, reference compound]",,18.3 ± 1.74,apoptosis (in words) [5]: induced significant apoptosis; apoptosis rate [6]: 15.5%; IC50 [7]: 0.204 µM; IC50 [8]: 13.7 µM; IC50 [9]: 13.8 µM; IC50 ([3]; MV4-11): 16.1 ± 1.54 µM; IC50 [10]: 17.2 µM; IC50 [11]: 5.21 µM; IC50 [12]: 22.4 µM; IC50 [13]: 12.4 µM; IC50 [14]: 15.3 µM; IC50 [15]: 18.1 µM; IC50 [16]: 17.3 µM; IC50 [17]: 20.1 µM; Dmax [18]: 69.4%; Dmax [19]: 76.2%
5.1 ± 0.49,7.43 ± 0.71,"O=C1CCC(NC(=O)c2cccc(C(=O)N3CCOCC3)c2)C(=O)N1 (stereo not shown) [MGD-A14, N-(2,6-dioxopiperidin-3-yl)-3-(morpholine-4-carbonyl)benzamide]",mild activity,10.6 ± 1.01,
14.3 ± 1.36,11.9 ± 1.14,"CC1CCN(C(=O)c2cccc(C(=O)NC3CCC(=O)NC3=O)c2)CC1 (stereo not shown) [MGD-A12, N-(2,6-dioxopiperidin-3-yl)-3-(4-methylpiperidine-1-carbonyl)benzamide]",,15.3 ± 1.46,"fold reduction in potency compared with MGD-A5 ([1]; NCI-H929, MV-4-11 and Ocl-Ly3 cells): more than 3 fold"
